Earlier results as cited in US20250213563A1, “SUBSTITUTED PYRIMIDIN-4(3H)-ONES FOR USE IN TREATING CANCER” (NAVIRE PHARMA, INC., priority 2021, published 2025).
Entries after “also recorded” stand apart in the source; their conditions may differ.

How the values were obtained:
pERK in tumors = conditions: at ≥20 mg daily; cited from earlier work
[1] = cited from earlier work
DUSP6 mRNA in tumors = conditions: at ≥20 mg daily; cited from earlier work

Row | Structure (SMILES) | Human PD: pERK inhibition in half of tumors analyzed (pERK in tumors) [% pERKinhibition] | most common AEs ([1]; Human DLTs) | patients in whom AEs lead to dose interruption ([1]; Human DLTs) | Human Half life ([1]; comparator SHP2 inhibitors) [h] | Human PD: DUSP6 mRNA inhibition in tumors (DUSP6 mRNA in tumors) [% DUSP6 mRNA] | Human DLTs ([1]; comparator SHP2 inhibitors)
1 | Cc1nc(N2CCC3(CC2)CO[C@@H](C)[C@H]3N)c(CO)nc1Sc1ccnc(N)c1Cl [RMC-4630] | >30 | patients; diarrhea,; also recorded: thrombocytopenia,; also recorded: edema are most | interruption in 50% | 28 to 33 | – | –
2 | C[C@@H]1OCC2(CCN(c3cnc(Sc4ccnc(N)c4Cl)c(N)n3)CC2)[C@@H]1N [TNO-155] | – | – | – | 35 | >50 | LVEF decrease, liver; also recorded: enzyme elevation,; also recorded: diarrhea
